Among the data in patent US10562887B2, “Triazolones and tetrazolones as inhibitors of ROCK” (BRISTOL-MYERS SQUIBB COMPANY, priority 2016, dated 2020) are IC50 values, retold here.

Sequence of ROCK2 (O75116 whole entry, species assumed): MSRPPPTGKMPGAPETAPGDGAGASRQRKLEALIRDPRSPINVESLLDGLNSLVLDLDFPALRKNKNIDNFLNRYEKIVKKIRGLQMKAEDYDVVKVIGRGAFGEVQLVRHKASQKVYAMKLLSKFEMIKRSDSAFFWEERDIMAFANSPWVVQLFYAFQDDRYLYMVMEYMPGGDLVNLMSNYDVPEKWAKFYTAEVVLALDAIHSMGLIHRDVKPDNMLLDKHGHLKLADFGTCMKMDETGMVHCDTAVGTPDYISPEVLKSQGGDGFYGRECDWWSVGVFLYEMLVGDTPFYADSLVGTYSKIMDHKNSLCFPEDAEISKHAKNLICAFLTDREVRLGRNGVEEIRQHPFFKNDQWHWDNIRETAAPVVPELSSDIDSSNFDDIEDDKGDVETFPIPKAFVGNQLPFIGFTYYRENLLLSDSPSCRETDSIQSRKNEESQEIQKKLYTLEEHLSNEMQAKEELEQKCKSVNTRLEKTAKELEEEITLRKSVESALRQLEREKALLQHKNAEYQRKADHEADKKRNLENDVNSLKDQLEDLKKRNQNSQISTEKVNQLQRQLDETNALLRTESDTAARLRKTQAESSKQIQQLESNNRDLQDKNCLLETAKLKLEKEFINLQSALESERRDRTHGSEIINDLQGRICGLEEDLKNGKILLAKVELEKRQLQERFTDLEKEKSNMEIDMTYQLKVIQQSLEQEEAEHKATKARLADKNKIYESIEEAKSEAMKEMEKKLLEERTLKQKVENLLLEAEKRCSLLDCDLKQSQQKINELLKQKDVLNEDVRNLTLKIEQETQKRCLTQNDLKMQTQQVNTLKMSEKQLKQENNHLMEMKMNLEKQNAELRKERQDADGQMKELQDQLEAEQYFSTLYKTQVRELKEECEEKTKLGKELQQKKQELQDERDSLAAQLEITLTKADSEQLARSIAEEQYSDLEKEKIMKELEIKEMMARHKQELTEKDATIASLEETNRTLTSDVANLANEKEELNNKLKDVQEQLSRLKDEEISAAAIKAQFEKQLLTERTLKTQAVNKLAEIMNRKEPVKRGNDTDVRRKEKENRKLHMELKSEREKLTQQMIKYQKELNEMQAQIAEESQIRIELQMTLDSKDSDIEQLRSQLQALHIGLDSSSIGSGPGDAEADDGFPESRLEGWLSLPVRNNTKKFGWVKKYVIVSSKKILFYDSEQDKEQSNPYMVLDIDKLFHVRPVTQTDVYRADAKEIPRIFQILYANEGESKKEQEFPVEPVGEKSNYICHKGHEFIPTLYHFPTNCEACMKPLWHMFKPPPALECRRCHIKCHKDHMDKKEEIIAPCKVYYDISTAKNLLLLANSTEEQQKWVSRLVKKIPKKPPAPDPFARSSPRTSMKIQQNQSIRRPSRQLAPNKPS

In this experiment the target is ROCK2 (Homo sapiens (Human), UniProt O75116). The experiment is described as follows: ROCK2 assay (peptide phosphorylation, LABCHIP 3000 Reader). As to conditions: 5 μM ATP, 1.5 μM peptide substrate. It counts as biochemical. Summed up:
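Human ROCK2 reaction in 20 mM HEPES pH 7.5, 20 mM MgCl2, 0.015% Brij-35, 4 mM DTT, with 5 μM ATP and 1.5 μM FITC-labelled peptide, DMSO <2%. Stopped with EDTA; phosphorylated and unphosphorylated peptide separated by microfluidic mobility shift. IC50 from dose-response curve fit.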
By IC50 is commonly meant the concentration that gives 50% inhibition. High values mean a need for much substance, low ones inhibition by little substance. `COc1cccc(Cn2nnn(-c3ccc(-c4cn[nH]c4)c(OC)c3)c2=O)c1` [Example 187, 1-(3-methoxy-4-(1H-pyrazol-4-yl)phenyl)-4-(3-methoxybenzyl)-1H-tetrazol-5(4H)-one] had a half-maximal inhibitory concentration (IC50) of 5 to 50 nM. The compound `COc1cc(F)cc(Cn2c(CNC(C)CO)nn(-c3ccc(-c4cn[nH]c4)cc3)c2=O)c1` (stereo not shown) [Example 153, 1-(4-(1H-pyrazol-4-yl)phenyl)-4-(3-fluoro-5-methoxybenzyl)-3-(((1-hydroxypropan-2-yl)amino)methyl)-1H-1,2,4-triazol-5(4H)-one] came in with a half-inhibitory concentration (IC50) of 5 to 50 nM. Next, `COc1ccc(Cn2cnn(-c3ccc(-c4cn[nH]c4)cc3)c2=O)cc1F` [Example 53, 1-(4-(1H-pyrazol-4-yl)phenyl)-4-(3-fluoro-4-methoxybenzyl)-1H-1,2,4-triazol-5(4H)-one]: 250 to 2000 nM. Next, `CCc1cc(-n2ncn(Cc3cccc(OC)c3)c2=O)ccc1-c1cn[nH]c1` [Example 45, 1-(3-ethyl-4-(1H-pyrazol-4-yl)phenyl)-4-(3-methoxybenzyl)-1H-1,2,4-triazol-5(4H)-one]: 5 to 50 nM. Compound `COc1cc(-c2cn[nH]c2)ccc1-n1c(C)nn(Cc2cccc(F)c2)c1=O` [Example 74, 1-(3-fluorobenzyl)-4-(2-methoxy-4-(1H-pyrazol-4-yl)phenyl)-3-methyl-1H-1,2,4-triazol-5(4H)-one] showed a 50% inhibitory concentration (IC50) of 250 to 2000 nM. `O=c1n(-c2ccc(-c3cn[nH]c3)cc2)nc(CO)n1Cc1cc(F)cc(F)c1` [Example 130, 1-(4-(1H-pyrazol-4-yl)phenyl)-4-(3,5-difluorobenzyl)-3-(hydroxymethyl)-1H-1,2,4-triazol-5(4H)-one] yielded an IC50 of 5 to 50 nM. With `Cc1nn(Cc2cccc(F)c2)c(=O)n1-c1ccc(-c2cn[nH]c2)cc1` [Example 70, 4-(4-(1H-pyrazol-4-yl)phenyl)-1-(3-fluorobenzyl)-3-methyl-1H-1,2,4-triazol-5(4H)-one] the figure was 250 to 2000 nM. Turning to `COc1cc(-n2ncn(Cc3ccccc3F)c2=O)ccc1-c1cn[nH]c1` [Example 31, 4-(2-fluorobenzyl)-1-(3-methoxy-4-(1H-pyrazol-4-yl)phenyl)-1H-1,2,4-triazol-5(4H)-one], the IC50 was 5 to 50 nM. With `CCc1cc(-n2ncn(Cc3ccccc3F)c2=O)ccc1-c1cn[nH]c1` [Example 42, 1-(3-ethyl-4-(1H-pyrazol-4-yl)phenyl)-4-(2-fluorobenzyl)-1H-1,2,4-triazol-5(4H)-one] the figure was 250 to 2000 nM. As to `COc1cc(F)cc(Cn2nnn(-c3ccc(-c4cn[nH]c4)c(OC)c3)c2=O)c1` [Example 182, 1-(3-fluoro-5-methoxybenzyl)-4-(3-methoxy-4-(1H-pyrazol-4-yl)phenyl)-1H-tetrazol-5(4H)-one], the IC50 lay within 5 to 50 nM. Next, `CC(c1ccccc1)n1cnn(-c2ccc(-c3cn[nH]c3)cc2)c1=O` (stereo not shown) [Example 22, 1-(4-(1H-pyrazol-4-yl)phenyl)-4-(1-phenylethyl)-1H-1,2,4-triazol-5(4H)-one]: less than 5 nM; `CCc1cc(-n2ncn(Cc3ccc(F)cc3)c2=O)ccc1-c1cn[nH]c1` [Example 43, 1-(3-ethyl-4-(1H-pyrazol-4-yl)phenyl)-4-(4-fluorobenzyl)-1H-1,2,4-triazol-5(4H)-one]: 250 to 2000 nM; `COc1cc(F)cc(Cn2cnn(-c3ccc(-c4cn[nH]c4)cc3)c2=O)c1` [Example 21, 1-(4-(1H-pyrazol-4-yl)phenyl)-4-(3-fluoro-5-methoxybenzyl)-1H-1,2,4-triazol-5(4H)-one]: less than 5 nM. Next, `O=c1n(Cc2ccccc2)cnn1-c1ccc(-c2cn[nH]c2)cc1` [Example 17, 1-(4-(1H-pyrazol-4-yl)phenyl)-4-benzyl-1H-1,2,4-triazol-5(4H)-one]: 5 to 50 nM; `CCc1cc(-n2nc(C)n(Cc3cccc(OC(F)F)c3)c2=O)ccc1-c1cn[nH]c1` [Example 112, 4-(3-(difluoromethoxy)benzyl)-1-(3-ethyl-4-(1H-pyrazol-4-yl)phenyl)-3-methyl-1H-1,2,4-triazol-5(4H)-one]: 50 to 250 nM; `COc1cccc(Cn2cnn(-c3ccc(-c4ncnc5[nH]ccc45)cc3)c2=O)c1` [Example 163, 1-(4-(7H-pyrrolo[2,3-d]pyrimidin-4-yl)phenyl)-4-(3-methoxybenzyl)-1H-1,2,4-triazol-5(4H)-one]: 50 to 250 nM. With `O=c1n(Cc2cc(F)ccc2F)nnn1-c1ccc(-c2cn[nH]c2)cc1` [Example 174, 1-(4-(1H-pyrazol-4-yl)phenyl)-4-(2,5-difluorobenzyl)-1H-tetrazol-5(4H)-one] the figure was 50 to 250 nM; with `COc1cc(Cn2c(CO)nn(-c3ccc(-c4cn[nH]c4)cc3)c2=O)cc(OC)c1` [Example 127, 1-(4-(1H-pyrazol-4-yl)phenyl)-4-(3,5-dimethoxybenzyl)-3-(hydroxymethyl)-1H-1,2,4-triazol-5(4H)-one], 50 to 250 nM; with `CC(c1ccccc1)n1ncn(-c2ccc(-c3cn[nH]c3)cc2)c1=O` (stereo not shown) [Example 15, 4-(4-(1H-pyrazol-4-yl)phenyl)-1-(1-phenylethyl)-1H-1,2,4-triazol-5(4H)-one], 250 to 2000 nM. Compound `COc1cc(-n2ncn(Cc3cccc(F)c3)c2=O)ccc1-c1cn[nH]c1` [Example 30, 4-(3-fluorobenzyl)-1-(3-methoxy-4-(1H-pyrazol-4-yl)phenyl)-1H-1,2,4-triazol-5(4H)-one] returned an IC50 of less than 5 nM. Next, `COc1cc(F)cc(Cn2c(CN3CCCC3)nn(-c3ccc(-c4cn[nH]c4)cc3)c2=O)c1` [Example 150, 1-(4-(1H-pyrazol-4-yl)phenyl)-4-(3-fluoro-5-methoxybenzyl)-3-(pyrrolidin-1-ylmethyl)-1H-1,2,4-triazol-5(4H)-one]: 5 to 50 nM. The compound `COc1cc(F)cc(Cn2nc(C)n(-c3ccc(-c4cn[nH]c4)cc3OC)c2=O)c1` [Example 76, 1-(3-fluoro-5-methoxybenzyl)-4-(2-methoxy-4-(1H-pyrazol-4-yl)phenyl)-3-methyl-1H-1,2,4-triazol-5(4H)-one] displayed an IC50 of 250 to 2000 nM. Next, `CCc1cc(-n2nc(C)n(Cc3cccc(C#N)c3)c2=O)ccc1-c1cn[nH]c1` [Example 111, 3-((1-(3-ethyl-4-(1H-pyrazol-4-yl)phenyl)-3-methyl-5-oxo-1H-1,2,4-triazol-4(5H)-yl)methyl)benzonitrile]: 250 to 2000 nM; `COc1cc(-c2cn[nH]c2)ccc1-n1cnn(CCc2ccccc2)c1=O` [Example 14, 4-(2-methoxy-4-(1H-pyrazol-4-yl)phenyl)-1-phenethyl-1H-1,2,4-triazol-5(4H)-one]: 50 to 250 nM. With `COc1cc(-n2nc(C)n(Cc3ccccc3F)c2=O)ccc1-c1cn[nH]c1` [Example 95, 4-(2-fluorobenzyl)-1-(3-methoxy-4-(1H-pyrazol-4-yl)phenyl)-3-methyl-1H-1,2,4-triazol-5(4H)-one] the figure was 5 to 50 nM.

Compound `COc1cc(-n2ncn(Cc3ccccc3)c2=O)ccc1-c1cn[nH]c1` [Example 23, 4-benzyl-1-(3-methoxy-4-(1H-pyrazol-4-yl)phenyl)-1H-1,2,4-triazol-5(4H)-one] had a concentration for half-maximal inhibition (IC50) of less than 5 nM. With `COc1cccc(Cn2c(C)nn(-c3ccc(-c4ccnc(N)c4)cc3)c2=O)c1` [Example 161, 1-(4-(2-aminopyridin-4-yl)phenyl)-4-(3-methoxybenzyl)-3-methyl-1H-1,2,4-triazol-5(4H)-one] the figure was 50 to 250 nM; with `CC(C)(O)c1nn(-c2ccc(-c3cn[nH]c3)cc2)c(=O)n1Cc1cc(F)cc(F)c1` [Example 137, 1-(4-(1H-pyrazol-4-yl)phenyl)-4-(3,5-difluorobenzyl)-3-(2-hydroxypropan-2-yl)-1H-1,2,4-triazol-5(4H)-one], 5 to 50 nM. For the compound `COc1cc(F)cc(Cn2c(C)nn(-c3ccc(-c4cn[nH]c4)cc3)c2=O)c1` [Example 83, 1-(4-(1H-pyrazol-4-yl)phenyl)-4-(3-fluoro-5-methoxybenzyl)-3-methyl-1H-1,2,4-triazol-5(4H)-one], the concentration for half-maximal inhibition (IC50) is less than 5 nM.

Take `COc1cc(-n2nc(C)n(Cc3ccccc3)c2=O)ccc1-c1cn[nH]c1` [Example 88, 4-benzyl-1-(3-methoxy-4-(1H-pyrazol-4-yl)phenyl)-3-methyl-1H-1,2,4-triazol-5(4H)-one]: the IC50 was less than 5 nM. Take `COc1cccc(Cn2c(C)nn(-c3ccc(-c4cn[nH]c4)cc3)c2=O)c1` [Example 80, 1-(4-(1H-pyrazol-4-yl)phenyl)-4-(3-methoxybenzyl)-3-methyl-1H-1,2,4-triazol-5(4H)-one]: the IC50 is less than 5 nM.

Consider `CCc1cc(-n2ncn(Cc3ccccc3)c2=O)ccc1-c1cn[nH]c1` [Example 54, 4-benzyl-1-(3-ethyl-4-(1H-pyrazol-4-yl)phenyl)-1H-1,2,4-triazol-5(4H)-one], for which the IC50 lay within 50 to 250 nM. Compound `COc1cc(-n2nnn(Cc3cccc(C#N)c3)c2=O)ccc1-c1cn[nH]c1` [Example 185, 3-((4-(3-methoxy-4-(1H-pyrazol-4-yl)phenyl)-5-oxo-4,5-dihydro-1H-tetrazol-1-yl)methyl)benzonitrile] displayed a half-inhibitory concentration (IC50) of 250 to 2000 nM.

Consider `COc1cccc(Cn2c(C)nn(-c3ccc(-c4ccnc5[nH]ccc45)cc3)c2=O)c1` [Example 165, 1-(4-(1H-pyrrolo[2,3-b]pyridin-4-yl)phenyl)-4-(3-methoxybenzyl)-3-methyl-1H-1,2,4-triazol-5(4H)-one], for which the IC50 lay in the range of 5 to 50 nM. Next, `COc1cccc(Cn2c(CN3CCOCC3)nn(-c3ccc(-c4cn[nH]c4)cc3)c2=O)c1` [Example 143, 1-(4-(1H-pyrazol-4-yl)phenyl)-4-(3-methoxybenzyl)-3-(morpholinomethyl)-1H-1,2,4-triazol-5(4H)-one]: 5 to 50 nM.

As to `CCc1cc(-n2ncn(Cc3cc(F)cc(OC)c3)c2=O)ccc1-c1cn[nH]c1` [Example 40, 1-(3-ethyl-4-(1H-pyrazol-4-yl)phenyl)-4-(3-fluoro-5-methoxybenzyl)-1H-1,2,4-triazol-5(4H)-one], the half-inhibitory concentration (IC50) is 5 to 50 nM. `COc1cccc(Cn2c(C)nn(-c3ccc(-c4ncnc5[nH]ccc45)cc3)c2=O)c1` [Example 164, 1-(4-(7H-pyrrolo[2,3-d]pyrimidin-4-yl)phenyl)-4-(3-methoxybenzyl)-3-methyl-1H-1,2,4-triazol-5(4H)-one] displayed an IC50 of 250 to 2000 nM.
